According to PubChem BioAssay (NCI):
Several values for one entry are separate records, joined by “and”; a condition that tells them apart may be missing. Equal values may be shown once.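 Protocol summary: plate cells (96-well), add compound at 5 concentrations, incubate 48 h, interpolate endpoints linearly. Here, GI50 denotes the concentration required for 50% inhibition of growth. At the TGI there is no net growth.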

Key:
Assay in all cases: NCI anticancer screen, dose series, 48 h
K-562 leukemia = test system: K-562 leukemia
SK-MEL-28 melanoma = test system: SK-MEL-28 melanoma
KM12 colon = test system: KM12 colon
OVCAR-8 ovarian = test system: OVCAR-8 ovarian
SNB-19 CNS = test system: SNB-19 CNS
HCC-2998 colon = test system: HCC-2998 colon
U251 CNS = test system: U251 CNS
HCT-15 colon = test system: HCT-15 colon
ACHN renal = test system: ACHN renal
OVCAR-4 ovarian = test system: OVCAR-4 ovarian

Row | Structure (SMILES) | TGI (K-562 leukemia) | TGI (SK-MEL-28 melanoma) | TGI (KM12 colon) [µM] | TGI (OVCAR-8 ovarian) [µM] | TGI (SNB-19 CNS) [µM] | TGI (HCC-2998 colon) [µM] | TGI (U251 CNS) | TGI (HCT-15 colon) | TGI (ACHN renal) | TGI (OVCAR-4 ovarian) | GI50 (K-562 leukemia) | GI50 (SK-MEL-28 melanoma) | GI50 (KM12 colon) [µM] | GI50 (OVCAR-8 ovarian) [µM] | GI50 (SNB-19 CNS) [µM] | GI50 (HCC-2998 colon) [µM] | GI50 (U251 CNS) | GI50 (HCT-15 colon) | GI50 (ACHN renal) | GI50 (OVCAR-4 ovarian)
1 | CC(=O)N1C(=O)C(=O)c2cc(Cl)ccc21 | > 100 µM | > 100 µM | > 100 | > 100 | > 100 | > 100 | > 100 µM | > 100 µM | > 100 µM | > 100 µM | – | – | – | – | – | – | – | – | – | –
2 | CNC1=C(Br)C(=O)C2=C(C1=O)C1C3=C(C(=O)C=CC3=O)C2c2ccccc21 (centres undefined) | > 23.7 µM | > 24.7 µM | 48.7 | 8.93 | 67.4 | 11.4 | 5.01 µM | 5.55 µM | 3.9 µM | 4.93 µM | 2.65 µM | 3.39 µM | 14.4 | 2.99 | 14.4 | 3.74 | 2.12 µM | 2.19 µM | 2.1 µM | 1.76 µM
3 | CCC(=O)[O-].CCC(=O)[O-].N.N.N.N.[Co+3].[O-][Cl+3]([O-])([O-])[O-] | > 100 µM | > 100 µM | > 100 | > 100 | > 100 | > 100 | > 100 µM | > 100 µM | > 100 µM | > 100 µM | > 100 µM | > 100 µM | > 100 | > 100 | > 100 | > 100 | > 100 µM | > 100 µM | > 100 µM | > 100 µM
4 | COc1ccc(-n2nc(C)c3c(Nc4ccc(NC(=O)Nc5cc(C(F)(F)F)ccc5F)cc4)ncnc32)cc1 | > 100 µM | 6.29 µM | 7.32 | 6.16 | > 100 | 15.5 | 4.03 µM | 6.31 µM | 42.9 µM | > 100 µM | 2.99 µM | 2.51 µM | 2.55 | 2.36 | 3.66 | 3.19 | 1.77 µM | 2.3 µM | 2.92 µM | 2.83 µM
5 | COc1cccc2c1C(=O)c1c(O)c3c(c(O)c1C2=O)C[C@@](O)(C(=O)COC(=O)c1cccnc1)C[C@@H]3OC1CC(N)C(O)C(C)O1 (some centres undefined) | 2.75 µM | 0.689 µM | 8.44 | 4.85 | 2.65 | 3.5 | 0.592 µM | 16.8 µM | – | 3.48 µM | 0.15 µM | 0.203 µM | 0.284 | 0.183 | 0.0691 | 0.454 | 0.0665 µM | 1.07 µM | 0.117 µM | 0.28 µM
6 | O=C(/C=C/c1ccccc1)c1ccc(O)c(CN2CCN(c3cc4c(cc3F)c(=O)c(C(=O)O)cn4C3CC3)CC2)c1 | > 100 µM | > 100 µM | 21 | > 100 | > 100 | 53.6 | > 100 µM | > 100 µM | 13.9 µM | > 100 µM | 0.278 µM | 2.13 µM | 1.69 | 0.592 | 0.984 | 3.11 | 0.389 µM | 2.64 µM | 1.9 µM | 16.7 µM
7 | C[C@]1(O)CC(=O)[C@]2(O)C3=C(C=C[C@]2(O)C1)C(=O)c1c(O)cccc1C3=O | 5.28 µM | 4.25 µM | 40.7 | 7.75 | 26.5 | 20.7 | 21.5 µM | 3.08 µM | 1.73 µM | 2.79 µM | 0.706 µM | 2.11 µM | 14 | 2.67 | 13.6 | 7.59 | 6.02 µM | 1.19 µM | 0.5 µM | 1.44 µM
8 | COc1ccc(-c2ccc(=O)oc2-c2cc(OC)c(OC)c(OC)c2)cc1O | > 100 µM | > 100 µM | > 35.8 | > 100 | > 100 | 0.426 | > 100 µM | > 20.5 µM | > 73.3 µM | > 100 µM | < 0.0229 µM | 1.64 µM | < 0.0248 | 0.0498 | 0.0571 | 0.0379 | 0.0286 µM | 0.0138 µM | 0.135 µM | 0.283 µM
9 | CC(=O)C1C(=O)C(=O)N(c2ccc(Cl)cc2C)C1=O (centres undefined) | > 100 µM | > 100 µM | > 100 | > 100 | > 100 | > 100 | > 100 µM | > 100 µM | > 100 µM | > 100 µM | – | – | – | – | – | – | – | – | – | –
10 | O=C(Oc1ccccc1Cl)c1cccnc1Nc1ccnc(C(F)(F)F)c1 | 27.6 µM | 46.8 µM | 32.6 | 47 | 70.1 | 30 | 32.9 µM | 29.1 µM | 50.2 µM | 95.8 µM | 4.61 µM | 20.4 µM | 14.4 | 14.7 | 23.4 | 15.6 | 17.6 µM | 14.6 µM | 22 µM | 27.8 µM
11 | CCCCCCCCOC(=O)c1cc(O)c(O)c(O)c1 | > 38.8 µM | 29.6 µM | 17.4 | 37.5 | > 58.9 | 18.6 | 28.6 µM | 18.3 µM | 13.8 µM | > 100 µM | 2.05 µM | 7.19 µM | 2.9 | 3.14 | 5.27 | 6 | 3.02 µM | 1.57 µM | 1.6 µM | 2.63 µM
12 | CCCCCCCCCCSS(=O)(=O)c1ccc(C)cc1 | 46.8 µM | 10.2 µM | 30.4 | 32.2 | 27.6 | 39.3 | 14.3 µM | 28.2 µM | 31 µM | 32 µM | – | – | – | – | – | – | – | – | – | –
13 | CCOc1ccccc1N=C(NC(=O)CC)SC | > 100 µM | > 100 µM | > 100 | > 100 | > 100 | > 100 | > 100 µM | > 100 µM | > 100 µM | > 100 µM | > 100 µM | > 100 µM | > 100 | > 10 | > 100 | > 100 | > 100 µM | > 10 µM | > 100 µM | > 10 µM
14 | C/C(=C\c1ccccc1)C(O)S(=O)(=O)O (centres undefined) | > 100 µM | > 100 µM | > 100 | > 100 | > 100 | > 100 | > 100 µM | > 100 µM | > 100 µM | > 100 µM | – | – | – | – | – | – | – | – | – | –
15 | CCCCCCCCCCCCCCCC[N+](C)(C)C | 1.1 µM and 2.83 µM | 1.72 µM and 6.88 µM | 2.79 | 0.536 | 0.255 | 3.73 | 0.271 µM and 1.97 µM | 1.85 µM and 10.1 µM | 1.61 µM and 4.03 µM | 1.03 µM and 5.95 µM | 0.163 µM and 1.17 µM | 0.482 µM and 2.24 µM | 1.36 | 0.212 | 0.129 | 1.71 | 0.139 µM and 0.567 µM | 0.383 µM and 1.88 µM | 0.332 µM and 1.44 µM | 0.232 µM and 1.52 µM
16 | CC(=O)[CH-]C(=O)c1ccccc1.CC(=O)[CH-]C(=O)c1ccccc1.[O-]c1ccc(O)cc1.[O-]c1ccc(O)cc1.[Ti+4] | 76 µM | 35.7 µM | 33 | 31.5 | 40 | 33.6 | 24 µM | 37.6 µM | 28.1 µM | 32.3 µM | 15.4 µM | 18.6 µM | 15.3 | 13.5 | 18.9 | 16.1 | 11.1 µM | 15.7 µM | 14.7 µM | 18.2 µM
